Measurements published in ChEMBL document CHEMBL5303766, “Data for DCP probe FHT-2344” (2022).
Activity calls are given as the source filed them. The calls are words filed in the database; no cut-off is given here.

Tests used:
[1] = molecular target: T1, Peripheral plasma membrane protein CASK (Homo sapiens) (UniProt O14936); test: CASK SGC Tm panel (DSF); settings: for ΔTm: Compound concentration 10.0 uM
T1 sequence (whole entry): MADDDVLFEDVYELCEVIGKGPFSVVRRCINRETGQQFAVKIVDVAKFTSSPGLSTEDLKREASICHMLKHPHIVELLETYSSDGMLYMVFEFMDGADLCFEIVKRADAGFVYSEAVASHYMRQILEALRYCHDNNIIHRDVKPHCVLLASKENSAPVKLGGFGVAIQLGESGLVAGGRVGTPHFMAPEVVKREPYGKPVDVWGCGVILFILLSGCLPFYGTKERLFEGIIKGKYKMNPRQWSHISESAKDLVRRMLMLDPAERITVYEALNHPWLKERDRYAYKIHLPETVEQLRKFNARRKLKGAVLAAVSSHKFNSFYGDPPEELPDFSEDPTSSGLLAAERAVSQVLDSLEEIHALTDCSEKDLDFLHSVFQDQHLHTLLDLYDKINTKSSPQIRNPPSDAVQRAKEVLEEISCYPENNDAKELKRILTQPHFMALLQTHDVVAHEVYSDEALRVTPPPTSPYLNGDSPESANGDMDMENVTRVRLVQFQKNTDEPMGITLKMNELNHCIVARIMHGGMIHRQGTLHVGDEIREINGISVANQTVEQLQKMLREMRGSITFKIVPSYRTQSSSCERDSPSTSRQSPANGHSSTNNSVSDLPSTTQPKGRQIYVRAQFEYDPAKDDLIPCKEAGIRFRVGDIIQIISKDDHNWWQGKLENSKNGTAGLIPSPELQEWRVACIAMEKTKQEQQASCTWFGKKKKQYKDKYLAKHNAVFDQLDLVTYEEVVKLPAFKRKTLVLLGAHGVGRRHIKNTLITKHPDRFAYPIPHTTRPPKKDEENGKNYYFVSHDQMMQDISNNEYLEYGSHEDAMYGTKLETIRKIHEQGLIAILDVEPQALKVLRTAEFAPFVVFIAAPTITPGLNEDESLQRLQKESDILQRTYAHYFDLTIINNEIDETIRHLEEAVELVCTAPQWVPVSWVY

[2] = molecular target: T2, Serine/threonine-protein kinase ULK1 (Homo sapiens) (UniProt O75385); test: ULK1 SGC Tm panel (DSF); settings: for ΔTm: Compound concentration 10.0 uM
T2 sequence (whole entry): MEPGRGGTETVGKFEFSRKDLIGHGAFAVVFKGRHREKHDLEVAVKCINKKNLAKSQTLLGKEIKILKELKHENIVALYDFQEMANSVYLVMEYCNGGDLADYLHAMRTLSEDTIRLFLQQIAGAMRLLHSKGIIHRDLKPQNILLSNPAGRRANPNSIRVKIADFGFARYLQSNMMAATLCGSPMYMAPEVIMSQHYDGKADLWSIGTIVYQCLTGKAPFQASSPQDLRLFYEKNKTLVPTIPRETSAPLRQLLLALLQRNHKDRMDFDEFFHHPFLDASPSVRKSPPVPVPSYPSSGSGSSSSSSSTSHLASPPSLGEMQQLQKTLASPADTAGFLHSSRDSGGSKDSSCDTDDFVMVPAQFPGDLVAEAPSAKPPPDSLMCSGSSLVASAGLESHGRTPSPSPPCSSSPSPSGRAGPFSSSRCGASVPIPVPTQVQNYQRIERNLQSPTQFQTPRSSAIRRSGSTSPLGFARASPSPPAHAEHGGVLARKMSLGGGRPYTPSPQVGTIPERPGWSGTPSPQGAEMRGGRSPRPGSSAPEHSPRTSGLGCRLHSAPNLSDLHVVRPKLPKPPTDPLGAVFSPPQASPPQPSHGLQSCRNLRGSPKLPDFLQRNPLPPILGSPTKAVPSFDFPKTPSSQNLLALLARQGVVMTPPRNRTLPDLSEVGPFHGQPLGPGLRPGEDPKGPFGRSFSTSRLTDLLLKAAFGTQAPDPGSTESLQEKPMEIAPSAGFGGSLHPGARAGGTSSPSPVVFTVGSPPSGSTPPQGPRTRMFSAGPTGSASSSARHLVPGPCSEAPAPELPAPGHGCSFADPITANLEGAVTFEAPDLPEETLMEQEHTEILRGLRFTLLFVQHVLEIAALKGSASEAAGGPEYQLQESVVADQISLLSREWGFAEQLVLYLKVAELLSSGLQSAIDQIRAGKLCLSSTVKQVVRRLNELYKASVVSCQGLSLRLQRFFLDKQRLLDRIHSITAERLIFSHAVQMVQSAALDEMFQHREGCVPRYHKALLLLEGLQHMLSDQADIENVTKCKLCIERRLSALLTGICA

[3] = molecular target: Serine/threonine-protein kinase Chk2 (Homo sapiens) (UniProt O96017); test: CHEK2 SGC Tm panel (DSF); settings: for ΔTm: Compound concentration 10.0 uM
Serine/threonine-protein kinase Chk2 (Homo sapiens), sequence (O96017 whole entry): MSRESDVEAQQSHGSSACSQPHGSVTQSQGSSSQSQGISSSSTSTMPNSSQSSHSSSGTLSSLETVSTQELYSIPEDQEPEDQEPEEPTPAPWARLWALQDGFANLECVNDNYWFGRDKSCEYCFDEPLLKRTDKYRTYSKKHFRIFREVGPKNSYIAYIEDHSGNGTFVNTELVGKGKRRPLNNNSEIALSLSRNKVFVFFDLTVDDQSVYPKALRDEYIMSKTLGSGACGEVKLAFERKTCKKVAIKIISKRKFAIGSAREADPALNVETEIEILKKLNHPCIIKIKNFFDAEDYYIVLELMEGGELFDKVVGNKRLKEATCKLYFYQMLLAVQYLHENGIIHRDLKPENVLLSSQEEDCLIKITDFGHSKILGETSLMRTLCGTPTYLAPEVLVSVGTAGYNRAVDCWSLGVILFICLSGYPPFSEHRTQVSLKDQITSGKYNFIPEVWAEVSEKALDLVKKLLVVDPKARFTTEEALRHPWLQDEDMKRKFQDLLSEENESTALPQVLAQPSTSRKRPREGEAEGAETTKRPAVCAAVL

[4] = molecular target: Ephrin type-A receptor 7 (Homo sapiens) (UniProt Q15375); test: EPHA7 SGC Tm panel (DSF); settings: for ΔTm: Compound concentration 10.0 uM
Ephrin type-A receptor 7 (Homo sapiens), sequence (Q15375 28-998 limits assumed): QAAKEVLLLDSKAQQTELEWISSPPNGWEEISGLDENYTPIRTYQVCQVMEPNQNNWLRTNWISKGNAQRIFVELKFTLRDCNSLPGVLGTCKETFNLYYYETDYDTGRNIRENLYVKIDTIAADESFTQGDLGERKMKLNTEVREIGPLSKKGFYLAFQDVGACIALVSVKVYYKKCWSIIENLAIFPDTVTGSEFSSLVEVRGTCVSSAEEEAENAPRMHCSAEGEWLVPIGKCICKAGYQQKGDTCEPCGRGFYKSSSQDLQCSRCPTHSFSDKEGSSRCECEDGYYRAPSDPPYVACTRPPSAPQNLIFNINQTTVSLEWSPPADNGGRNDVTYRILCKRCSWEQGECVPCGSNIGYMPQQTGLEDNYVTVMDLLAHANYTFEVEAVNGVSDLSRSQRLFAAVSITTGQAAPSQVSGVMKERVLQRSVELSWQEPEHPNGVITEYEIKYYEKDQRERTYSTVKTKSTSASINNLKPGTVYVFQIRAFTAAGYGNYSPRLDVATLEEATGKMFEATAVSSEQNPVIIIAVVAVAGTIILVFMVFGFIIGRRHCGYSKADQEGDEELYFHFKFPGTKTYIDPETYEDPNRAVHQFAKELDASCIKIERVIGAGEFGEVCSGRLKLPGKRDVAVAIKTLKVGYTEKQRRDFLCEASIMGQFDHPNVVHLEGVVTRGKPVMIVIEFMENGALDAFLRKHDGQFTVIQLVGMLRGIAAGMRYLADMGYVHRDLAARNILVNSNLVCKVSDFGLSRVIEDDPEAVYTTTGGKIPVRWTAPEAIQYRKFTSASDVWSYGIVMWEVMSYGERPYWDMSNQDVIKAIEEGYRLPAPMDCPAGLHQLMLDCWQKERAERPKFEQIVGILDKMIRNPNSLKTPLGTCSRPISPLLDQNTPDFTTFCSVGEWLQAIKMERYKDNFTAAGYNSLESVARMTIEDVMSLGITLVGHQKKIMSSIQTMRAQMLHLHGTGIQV

[5] = molecular target: Histamine H2 receptor (Homo sapiens) (UniProt P25021); settings: Compound concentration 10.0 uM
Histamine H2 receptor (Homo sapiens), sequence (P25021 whole entry): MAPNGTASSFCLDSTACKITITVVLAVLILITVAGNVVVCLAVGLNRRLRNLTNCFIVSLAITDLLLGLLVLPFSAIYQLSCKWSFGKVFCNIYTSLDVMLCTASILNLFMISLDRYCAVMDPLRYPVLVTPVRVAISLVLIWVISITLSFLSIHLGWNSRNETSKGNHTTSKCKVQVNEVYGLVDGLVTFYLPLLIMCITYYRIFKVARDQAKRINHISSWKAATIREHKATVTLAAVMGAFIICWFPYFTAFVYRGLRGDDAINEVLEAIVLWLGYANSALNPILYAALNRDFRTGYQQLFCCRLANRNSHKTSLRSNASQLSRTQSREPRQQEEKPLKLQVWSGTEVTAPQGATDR

[6] = molecular target: SWI/SNF-related matrix-associated actin-dependent regulator of chromatin subfamily A member 4 (Homo sapiens, UniProt P51532); test: Luciferase reporter assay: SMARCA4 transcriptional activity in a SMARCA2-mutant cell line; type: functional
SWI/SNF-related matrix-associated actin-dependent regulator of chromatin subfamily A member 4, sequence (P51532 whole entry, looked up, stated change not applied): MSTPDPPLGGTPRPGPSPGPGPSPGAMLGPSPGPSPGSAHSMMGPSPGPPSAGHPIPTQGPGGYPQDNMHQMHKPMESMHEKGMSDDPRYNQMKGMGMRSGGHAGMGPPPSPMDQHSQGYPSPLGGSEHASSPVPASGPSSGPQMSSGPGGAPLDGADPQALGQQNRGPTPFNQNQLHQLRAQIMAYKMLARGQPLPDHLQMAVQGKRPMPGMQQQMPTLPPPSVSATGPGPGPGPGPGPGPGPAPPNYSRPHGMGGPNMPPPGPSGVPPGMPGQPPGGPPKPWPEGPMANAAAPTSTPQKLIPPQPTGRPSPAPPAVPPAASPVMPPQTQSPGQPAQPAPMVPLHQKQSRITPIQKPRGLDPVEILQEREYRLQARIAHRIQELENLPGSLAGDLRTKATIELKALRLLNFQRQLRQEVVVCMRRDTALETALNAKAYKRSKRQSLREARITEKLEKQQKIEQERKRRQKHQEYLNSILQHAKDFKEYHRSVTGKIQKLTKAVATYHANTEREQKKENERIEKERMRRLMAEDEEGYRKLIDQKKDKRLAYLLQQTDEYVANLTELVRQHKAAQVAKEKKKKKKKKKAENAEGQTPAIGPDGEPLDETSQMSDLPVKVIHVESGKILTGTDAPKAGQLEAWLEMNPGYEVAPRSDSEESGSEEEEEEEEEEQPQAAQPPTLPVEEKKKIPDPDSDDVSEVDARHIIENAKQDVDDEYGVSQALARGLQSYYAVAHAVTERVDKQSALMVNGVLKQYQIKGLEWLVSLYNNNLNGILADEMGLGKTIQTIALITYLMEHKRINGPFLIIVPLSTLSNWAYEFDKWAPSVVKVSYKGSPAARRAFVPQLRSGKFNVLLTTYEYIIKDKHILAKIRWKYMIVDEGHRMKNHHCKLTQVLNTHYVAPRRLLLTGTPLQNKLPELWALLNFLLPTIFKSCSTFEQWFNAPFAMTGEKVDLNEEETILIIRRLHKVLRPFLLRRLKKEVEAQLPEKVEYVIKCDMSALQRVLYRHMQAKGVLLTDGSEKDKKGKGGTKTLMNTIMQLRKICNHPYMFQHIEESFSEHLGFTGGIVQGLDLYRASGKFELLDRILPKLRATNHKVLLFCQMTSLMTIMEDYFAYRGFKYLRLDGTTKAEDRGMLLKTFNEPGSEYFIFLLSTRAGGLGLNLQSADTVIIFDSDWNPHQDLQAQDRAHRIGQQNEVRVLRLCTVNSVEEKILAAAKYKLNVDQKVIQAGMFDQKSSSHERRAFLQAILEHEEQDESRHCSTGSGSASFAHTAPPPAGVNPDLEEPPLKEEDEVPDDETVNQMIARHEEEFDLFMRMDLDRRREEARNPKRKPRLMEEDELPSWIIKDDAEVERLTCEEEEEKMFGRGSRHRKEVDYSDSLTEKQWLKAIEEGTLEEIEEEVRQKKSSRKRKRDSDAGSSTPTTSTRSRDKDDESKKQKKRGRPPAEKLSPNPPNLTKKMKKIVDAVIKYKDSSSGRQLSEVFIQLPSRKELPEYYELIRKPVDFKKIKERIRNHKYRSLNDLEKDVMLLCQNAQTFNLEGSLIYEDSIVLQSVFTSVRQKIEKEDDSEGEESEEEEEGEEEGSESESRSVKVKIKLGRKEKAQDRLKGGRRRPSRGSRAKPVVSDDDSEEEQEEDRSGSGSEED

[7] = molecular target: Calcium/calmodulin-dependent protein kinase kinase 2 (Homo sapiens) (UniProt Q96RR4); test: CAMKK2 SGC Tm panel (DSF); settings: for ΔTm: Compound concentration 10.0 uM
Calcium/calmodulin-dependent protein kinase kinase 2 (Homo sapiens), sequence (Q96RR4 2-588 limits assumed): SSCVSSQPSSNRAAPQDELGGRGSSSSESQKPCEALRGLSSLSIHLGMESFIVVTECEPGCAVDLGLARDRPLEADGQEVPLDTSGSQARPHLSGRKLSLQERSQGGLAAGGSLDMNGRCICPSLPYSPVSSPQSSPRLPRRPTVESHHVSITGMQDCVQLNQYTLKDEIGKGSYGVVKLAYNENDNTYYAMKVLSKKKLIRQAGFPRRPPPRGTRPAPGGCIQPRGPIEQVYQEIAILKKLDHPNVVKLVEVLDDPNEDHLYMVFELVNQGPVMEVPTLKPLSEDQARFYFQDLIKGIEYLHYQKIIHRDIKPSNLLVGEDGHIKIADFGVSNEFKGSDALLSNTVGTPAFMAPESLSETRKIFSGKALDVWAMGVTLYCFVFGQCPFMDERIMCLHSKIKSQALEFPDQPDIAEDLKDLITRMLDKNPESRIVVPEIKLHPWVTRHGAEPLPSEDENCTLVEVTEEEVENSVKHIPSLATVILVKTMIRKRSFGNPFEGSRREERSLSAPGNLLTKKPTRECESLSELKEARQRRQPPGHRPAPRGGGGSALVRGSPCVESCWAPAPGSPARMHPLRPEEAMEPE

[8] = molecular target: Histamine H1 receptor (Homo sapiens) (UniProt P35367); settings: Compound concentration 10.0 uM
Histamine H1 receptor (Homo sapiens), sequence (P35367 whole entry): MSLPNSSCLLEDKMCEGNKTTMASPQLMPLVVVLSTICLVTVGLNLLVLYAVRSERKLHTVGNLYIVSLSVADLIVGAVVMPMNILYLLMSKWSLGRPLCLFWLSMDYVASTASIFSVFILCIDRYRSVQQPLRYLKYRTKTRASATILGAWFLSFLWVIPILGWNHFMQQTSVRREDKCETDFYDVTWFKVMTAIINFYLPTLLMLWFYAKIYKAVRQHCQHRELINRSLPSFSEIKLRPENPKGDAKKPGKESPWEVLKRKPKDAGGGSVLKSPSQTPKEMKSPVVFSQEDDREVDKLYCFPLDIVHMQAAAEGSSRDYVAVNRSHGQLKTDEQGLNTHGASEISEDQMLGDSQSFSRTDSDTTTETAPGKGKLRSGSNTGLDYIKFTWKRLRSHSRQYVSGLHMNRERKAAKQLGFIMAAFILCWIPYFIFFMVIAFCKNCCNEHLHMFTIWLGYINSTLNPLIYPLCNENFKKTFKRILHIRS

[9] = molecular target: 5-hydroxytryptamine receptor 2B (Homo sapiens, UniProt P41595); settings: Compound concentration 10.0 uM
5-hydroxytryptamine receptor 2B, sequence (P41595 whole entry): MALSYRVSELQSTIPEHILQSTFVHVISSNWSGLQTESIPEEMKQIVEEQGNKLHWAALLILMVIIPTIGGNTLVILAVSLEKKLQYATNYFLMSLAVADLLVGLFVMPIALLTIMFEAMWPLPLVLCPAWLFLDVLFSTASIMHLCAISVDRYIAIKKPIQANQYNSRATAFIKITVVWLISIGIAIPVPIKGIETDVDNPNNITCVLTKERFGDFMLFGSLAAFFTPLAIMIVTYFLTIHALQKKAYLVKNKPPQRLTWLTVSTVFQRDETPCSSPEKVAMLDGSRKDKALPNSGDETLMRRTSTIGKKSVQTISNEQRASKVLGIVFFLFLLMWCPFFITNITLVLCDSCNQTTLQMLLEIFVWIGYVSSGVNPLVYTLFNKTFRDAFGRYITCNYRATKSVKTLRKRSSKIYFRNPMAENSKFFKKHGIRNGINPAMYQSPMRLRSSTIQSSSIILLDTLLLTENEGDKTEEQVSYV

SMILES | delta Tm Staurosporine positive control [1] | ΔTm [1] | delta Tm Staurosporine positive control [2] | ΔTm [2] | delta Tm Staurosporine positive control [3] | ΔTm [3] | delta Tm Staurosporine positive control [4] | ΔTm [4] | inhibition [5] [%] | IC50 [6] | delta Tm Staurosporine positive control [7] | ΔTm [7] | inhibition [8] [%] | inhibition [9] [%]
C[C@H](NC(=O)c1cn(C2(C#N)CC2)cn1)C(=O)Nc1nc(-c2cccc(-c3ccn(C)n3)c2)cs1 | 4.91 | 0.617 | 13.4 | 0.0519 | 16.7 | -1.06 | 11.5 | 1.13 | 4.24 | 2.37 µM (not active) | 24.4 | 0.609 | 12.5 | 86.8
COC[C@H](NC(=O)c1ccn(S(C)(=O)=O)c1)C(=O)Nc1nc(-c2cccc(-c3ccn(C)n3)c2)cs1 | 4.91 | 0.501 | 13.4 | 0.528 | 16.7 | -0.718 | 11.5 | 0.976 | 22.6 | 0.0302 µM (active) | 24.4 | 0.325 | 1.95 | 48.2
